Patent US20080280933A1, “BENZIMIDAZOLYL COMPOUNDS” (priority 2006, published 2008)

molecular target: T1, mGluR2 receptor (metabotropic glutamate receptor 2) (Homo sapiens, UniProt Q14416); assay: mGluR2 Potentiator Screen, FLIPR, EC10-EC20 glutamate challenge; format: cell-based; settings: mGluR2 potentiator screen, Table 7; read-out: EC50
T1 construct: expressed in transfected cells
Procedure, shortened: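 HEK cells stably co-expressing mGluR2 and Gα15, kept glutamine-free overnight, were loaded with Fluo-4 plus probenecid and GPT/pyruvate. Compounds (top 10 μM) were added ≥30 min before an EC10–EC20 glutamate challenge. Peak FLIPR fluorescence ratios were curve-fitted, excluding points above maximal effect, with maxima from on-plate standards.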

T1 sequence (Q14416 19-872, species assumed): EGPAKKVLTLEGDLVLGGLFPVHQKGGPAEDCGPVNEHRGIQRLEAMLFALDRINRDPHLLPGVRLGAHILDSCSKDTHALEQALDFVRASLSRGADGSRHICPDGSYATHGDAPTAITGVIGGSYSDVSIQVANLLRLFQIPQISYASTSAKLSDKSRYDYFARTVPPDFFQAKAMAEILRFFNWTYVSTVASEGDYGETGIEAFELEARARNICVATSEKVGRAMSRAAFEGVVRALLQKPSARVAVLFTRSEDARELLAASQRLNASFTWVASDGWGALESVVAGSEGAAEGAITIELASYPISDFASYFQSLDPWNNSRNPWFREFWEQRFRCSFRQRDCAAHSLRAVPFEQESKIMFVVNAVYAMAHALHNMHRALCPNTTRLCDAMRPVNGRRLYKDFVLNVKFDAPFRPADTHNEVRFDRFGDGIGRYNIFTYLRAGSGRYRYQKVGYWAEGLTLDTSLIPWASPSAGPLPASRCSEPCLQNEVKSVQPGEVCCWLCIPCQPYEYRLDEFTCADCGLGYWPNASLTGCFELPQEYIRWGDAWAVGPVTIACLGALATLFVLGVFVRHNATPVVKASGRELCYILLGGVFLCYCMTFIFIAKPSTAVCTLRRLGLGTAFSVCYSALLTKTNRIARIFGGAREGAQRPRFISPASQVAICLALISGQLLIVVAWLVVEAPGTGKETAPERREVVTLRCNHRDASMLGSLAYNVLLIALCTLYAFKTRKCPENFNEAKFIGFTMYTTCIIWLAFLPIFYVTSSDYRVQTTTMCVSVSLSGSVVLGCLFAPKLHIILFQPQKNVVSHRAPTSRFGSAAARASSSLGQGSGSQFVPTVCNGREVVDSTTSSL

In order of falling EC50:
1. Clc1ccc(OCCC2CC2)c(C2CCN(Cc3nc4ccccc4n3C3CC3)CC2)c1 [compound 187]  0.777 µM
2. Cn1c(CN2CCC(c3ccccc3Cl)CC2)nc2ccccc21 [compound 161]  0.144 µM
3. Cn1c(CN2CCC(c3cc(Cl)ccc3F)CC2)nc2ccccc21 [compound 172]  0.00828 µM

same assay, conditions: read-out: EC50

In order of rising EC50:
1. Cn1c(CN2CCC(c3ccccc3F)CC2)nc2ccccc21 [compound 79]  0.021 µM
2. FCn1c(CN2CCC(c3ccc(C(F)(F)F)cc3)CC2)nc2ccccc21 [compound 255]  0.164 µM
3. COc1cc(F)ccc1C1CCN(Cc2nc3cccc(F)c3n2C)CC1 [compound 407]  0.167 µM
4. COc1ccc(C2CCN(Cc3nc4ccccc4n3C)CC2)cc1 [compound 421]  0.213 µM
5. CCCCC(=O)N1CC2(CCN(Cc3nc4ccccc4n3C)CC2)c2ccccc21 [compound 62]  0.261 µM
6. 2-((4-(2-Fluorophenyl)piperidin-1-yl)methyl)-1-methyl-1H-benzo[d]imidazole-5-carbonitrile [Entry 272]  0.439 µM
7. FCCn1c(CN2CCC(c3ccc(F)cc3)CC2)nc2ccccc21 [compound 370]  0.582 µM
8. COc1ccccc1C1CCN(Cc2nc3c(Cl)cccc3n2C)CC1 [compound 270]  0.838 µM
9. Cn1c(CN2CCC(c3ccc(C(F)(F)F)cc3)CC2)nc2cc(Cl)ccc21 [compound 345]  1.6 µM
10. Cn1c(CN2CCC(c3ccccc3F)CC2)nc2cc(C(N)=O)ccc21 [Entry 363, 2-((4-(2-Fluorophenyl)piperidin-1-yl)methyl)-1-methyl-1H-benzo[d]imidazol-5-carboxamide]  2.02 µM
11. Cc1ccc2c(c1)C1(CCN(Cc3nc4ccccc4n3C)CC1)CN2C(=O)c1c(C)noc1C [compound 31]  2.04 µM
12. FC(F)(F)c1ccccc1C1CCN(Cc2nc3ccccc3n2C2CC2)CC1 [compound 245]  3.35 µM
13. CCC(C)CN1CC2(CCN(Cc3nc4ccccc4n3C)CC2)c2cc(C)ccc21 (stereo not shown) [compound 141]  5.67 µM
